Publication PMC4596527 (Bioorganic & medicinal chemistry, 2010)
Marks after values point to notes of the source that are not given here.

How the values were obtained:
[1] = system: Langendorff-perfused heart; conditions: attributed to activation of Akt and ERK1/2 pathways; cited from earlier work
myocite = conditions: exposure to hypoxantine and xantine oxidase; cited from earlier work
[2] = system: Chinese hamster ovary (CHO) cells; test: MTT cell viability, protection against H2O2-mediated cytotoxicity in CHO cells; conditions: for Cytotoxicity CHO (%): 50 μM compound for 2 h, then 1mM H2O2 for 1 h, MTT
reperfused myocardium = conditions: in vivo I/R injury; cited from earlier work
[3] = Superoxide radical scavenging by EPR spin trapping; conditions: PBS pH 7.4
[4] = system: human aortic vascular smooth muscle cells (HSMCs); test: MTT cell viability, protection against H2O2-mediated cytotoxicity in HSMC cells; conditions: 50 μM compound for 2 h, then 1mM H2O2 for 1 h
[5] = 1-mM compound in presence of 1-mM DEPMPO
[6] = 100-μM compound in presence of 1-mM DEPMPO

Compound: COc1ccc(CCN(C)CCCC(C#N)(c2ccc(OC)c(OC)c2)C(C)C)cc1OC (stereo not shown) [Compound 1, verapamil]
- oxidative damage during ischemia and reperfusion [1]: decreased oxidative damage
- myocite viability (myocite): preserved

Compound: COc1ccc(CCN(C)CCCC(CNC(=O)C2=CC(C)(C)N(O)C2(C)C)(c2ccc(OC)c(OC)c2)C(C)C)cc1OC.Cl (stereo not shown) [Compound 12B]
- protection of CHO cells against H2O2 compared with verapamil (in words) [2]: good protection

Compound: COc1ccc(CCN(C)CCCC(CNC(=O)C2=CC(C)(C)N(O)C(C)(C)C2)(c2ccc(OC)c(OC)c2)C(C)C)cc1OC.Cl (stereo not shown) [Compound 16B]
- protection of CHO cells against H2O2 compared with verapamil (in words) [2]: good protection
- Akt and Bcl-2 levels in reperfused myocardium (reperfused myocardium): enhanced
- nitric oxide generation in reperfused myocardium (reperfused myocardium): increased
- superoxide production in reperfused myocardium (reperfused myocardium): markedly attenuated

Compound: COc1ccc(CCN(C)CCCC(CNC(=O)C2CC(C)(C)N(O)C(C)(C)C2)(c2ccc(OC)c(OC)c2)C(C)C)cc1OC.Cl (stereo not shown) [Compound 17B]
- protection of CHO cells against H2O2 compared with verapamil (in words) [2]: good protection

Compound: COc1ccc(CCN(CCCC(C#N)(c2ccc(OC)c(OC)c2)C(C)C)CC2=CC(C)(C)NC2(C)C)cc1OC (stereo not shown) [Compound 23A, 2-(3,4-Dimethoxyphenyl)-5-[[2-(3,4-dimethoxyphenyl)ethyl]-(2,2,5,5-tetramethyl-2,5-dihydro-1H-pyrrol-3-ylmethyl)-amino]-2-isopropyl-pentanenitrile]
- Cytotoxicity CHO (%) [2]: 74.0 ± 3.4%
- Superoxide Scavenging (%) [3, 5]: 70.6 ± 3.3 ^a %
- Cytotoxicity HSMC (%) [4]: 64.8 ± 7.1%

Compound: COc1ccc(CCN(CCCC(C#N)(c2ccc(OC)c(OC)c2)C(C)C)CC2=CC(C)(C)N(O)C2(C)C)cc1OC.Cl (stereo not shown) [Compound 23B, 2-(3,4-Dimethoxyphenyl)-5-[[2-(3,4-dimethoxyphenyl)ethyl]-(1-hydroxy-2,2,5,5-tetramethyl-2,5-dihydro-1H-pyrrol-3-ylmethyl)-amino]-2-isopropyl-pentanenitrile HCl Salt]
- Cytotoxicity CHO (%) [2]: 66.7 ± 3.0%
- Superoxide Scavenging (%) [3, 5]: 100%
- Superoxide Scavenging (%) [3, 6]: 78.1±2.6%
- Cytotoxicity HSMC (%) [4]: 58.6 ± 4.8%

Compound: COc1ccc(CCN(CCCC(C#N)(c2ccc(OC)c(OC)c2)C(C)C)CC2=CC(C)(C)NC(C)(C)C2)cc1OC (stereo not shown) [Compound 24A, 2-(3,4-Dimethoxyphenyl)-5-[[2-(3,4-dimethoxyphenyl)ethyl]-(2,2,6,6-tetramethyl-1,2,3,6-tetrahydropyridin-4-ylmethyl)amino]-2-isopropyl-pentanenitrile]
- Cytotoxicity CHO (%) [2]: 95.3 ± 0.5%
- Superoxide Scavenging (%) [3, 5]: 68.2 ± 7.6 ^a %
- Cytotoxicity HSMC (%) [4]: 91.1 ± 0.5%

Compound: COc1ccc(CCN(CCCC(C#N)(c2ccc(OC)c(OC)c2)C(C)C)CC2=CC(C)(C)N(O)C(C)(C)C2)cc1OC.Cl (stereo not shown) [Compound 24B, 2-(3,4-Dimethoxyphenyl)-5-[[2-(3,4-dimethoxyphenyl)ethyl]-(1-hydroxy-2,2,6,6-tetramethyl-1,2,3,6-tetrahydropyridin-4-ylmethyl)amino]-2-isopropyl-pentanenitrile HCl Salt]
- Cytotoxicity CHO (%) [2]: 64.8 ± 5.6%
- Superoxide Scavenging (%) [3, 5]: 100%
- Superoxide Scavenging (%) [3, 6]: 82.5±2.7%
- Cytotoxicity HSMC (%) [4]: 57.2 ± 5.4%

Compound: [4-Cyano-4-(3,4-dimethoxyphenyl)-5-methylhexyl]-[2-(3,4-dimethoxyphenyl)ethyl]-(1-oxyl-2,2,5,5-tetramethyl-2,5-dihydro-1H-pyrrol-3-ylmethyl)methylammonium Iodide Salt Radical [Compound 25]
- protection of CHO cells against H2O2 compared with verapamil (in words) [2]: good protection
- Superoxide Scavenging (%) [3, 5]: 73.8 ± 3.0 ^a %

Compound: [4-Cyano-4-(3,4-dimethoxyphenyl)-5-methylhexyl]-[2-(3,4-dimethoxyphenyl)ethyl]-(1-oxyl-2,2,6,6-tetramethyl-1,2,3,6-tetrahydropyridin-4-ylmethyl)methylammonium Iodide Salt Radical [Compound 26]
- Superoxide Scavenging (%) [3, 5]: 48.1 ± 2.7 ^a %
